Here are results for two compounds from patent US20160213692A1, “ADVANCED METHOD OF TREATMENT AND MANAGEMENT OF CHRONIC HEPATITIS C INFECTION” (priority 2015, published 2016).

The structures appear in SMILES notation. Marks after values point to notes of the source that are not given here.

In one data set the test system is monkey red cells. To be noted: in vitro incubation; cited from earlier work.
Data set [1] deals with male Wistar rats. Kind of data set: Liver and renal function parameters in serum (Cobas e411) of treated rats. Here is the method: (§1) A total of 80 male Wistar rats weighing 250-300 gm were used. All animals received humane care during the study protocol and during sacrifice.
(§2) The study duration was 5 weeks. Peg-INF-α-2a was prepared by diluting the content of a full syringe (180 μg/0.5 ml) in 9.5 ml sterile normal saline to prepare a final volume of 10 ml and the final concentration was 18 μg/ml. Each rat in the ‘P’, ‘PD’, ‘PR’ and ‘PRD’ groups received a weekly subcutaneous injection of 0.33 ml (6 μg/rat) for a total of 4 injections. The drug was prepared fresh on the day of use. […] Cholecalciferol ([…]) was prepared by adding 4 ml to 16 ml saline every morning to form a final concentration of 1000 IU/mL. Each rat in the ‘PD’, ‘PRD’, ‘PR’ and ‘VitD’ groups received 0.5 ml/day (500 IU/day) for the full study duration. Cholecalciferol, and its dose, was chosen over calcitriol, the hormonal form of vitamin D, to avoid the risk of soft tissue calcification (Salum et al, 2012). Following 4 injections, the rats were sacrificed in the fifth week at the time of the 5th injection would have been given. RBV and vitamin D3 were continued till the day before sacrifice.
(§3) All Rats were sacrificed on the same day under anesthesia using diethyl ether (Fisher Scientific UK Ltd, Loughborough, UK) a week after the last injection. 1 ml of blood was collected on EDTA for CBC and 3 ml of blood were collected in plane tube immediately after cutting the vena cava. Blood samples in plane tubes were centrifuged and the serum was stored in −20° C. for routine biochemistry and to measure serum concentrations of 25-OH vitamin D and EPO.
The quantitative measurement of serum liver enzymes (ALP, ALT and AST), total and indirect bilirubin, creatinine and urea was done using Cobas e411 (Roche Diagnostics International Ltd, Switzerland) according to the manufacturer protocol.

The test system of data set [2] is male Wistar rats. Kind of data set: Haematological profile / erythrocyte indices (Sysmex XS 500) of treated rats. The procedure: as §1, §2, §3
Whole blood samples (1 ml) collected on EDTA were processed on Sysmex XS 500 (Sysmex, IL, USA) for the measurement of hemoglobin concentrations, RBCs count, packed cell volume (PCV), mean corpuscular volume (MCV), mean corpuscular hemoglobin (MCH) an mean corpuscular hemoglobin concentration (MCHC).

The test system of the next data set is human red cells. To be noted: in vitro incubation; cited from earlier work.
For data set [3] the following is noted: male, Wistar, rat, in vivo, 5 weeks. The procedure:
as §1, §2
All Rats were sacrificed on the same day under anesthesia using diethyl ether (Fisher Scientific UK Ltd, Loughborough, UK) a week after the last injection. […]

The test system of the next data set is rat red cells. As to conditions: in vitro incubation; cited from earlier work.
Setting [4] is: whole blood, male Wistar rats, 5 weeks.
Where [5] appears, read: serum, male Wistar rats, 5 weeks.

For the compound `NC(=O)c1ncn([C@@H]2O[C@H](CO)[C@@H](O)[C@H]2O)n1` [R group, ribavirin], in the data set on monkey red cells, the “initial drug content retained by red cells” value (from here on “initial drug content retained”) is 77%. For the same compound, in the data set with male Wistar rats [1] (rat, in vivo), the ALP stood at 119 ± 9.9 IU/L, the ALT was found to be 66.1 ± 2.6 U/L, the AST was determined as 78.4 ± 3.2 U/L and the Creatinine was determined as 0.22 ± 0.03 mg/dL. For the same compound, in the data set with male Wistar rats [1] (rat, in vivo), the “Indirect Bilirubin” value turned out to be 0.17 ± 0.07 mg/dL, the “Total Bilirubin” value is 0.49 ± 0.14 mg/dL and the Urea is 47.3 ± 5.8 mg/dL. In the data set on male Wistar rats [2] (rat, in vivo), the MCH is recorded as 17.6 ± 0.7 pg, the MCHC is on record as 34.4 ± 0.9^c,e pg/dL, the MCV is listed as 64.3 ± 4.2 fL and the PCV came out at 42.1 ± 2.7%. Besides, the RBCs in the data set on male Wistar rats [2] (rat, in vivo) is 7.58 ± 0.7^a,b,c,e ×10^6/μl. Moreover, the Hb with male Wistar rats [2] (setting [4]) is given as 13.1 ± 1^a,b,c,e g/dL. In the data set on human red cells, the “initial drug content retained” value is 45%. Further, in data set [3], the “25-OH Vitamin D” value is 42 ± 10^c,e ng/mL. For the same compound, in the data set with rat red cells, the “initial drug content retained” value is listed as 20%.
For the compound `C=C1CC[C@H](O)C/C1=C/C=C1\CCC[C@]2(C)[C@@H]([C@H](C)CCCC(C)C)CC[C@@H]12` [VitD group, cholecalciferol], in the data set with male Wistar rats [1] (setting [5]), the ALT is reported as 66.7 ± 4.2 U/L, the AST was determined as 75.8 ± 4.2 U/L, the Creatinine is 0.2 ± 0.06 mg/dL and the “Indirect Bilirubin” value came to 0.15 ± 0.08 mg/dL. Also, in the data set with male Wistar rats [1] (setting [5]), the “Total Bilirubin” value was found to be 0.51 ± 0.23 mg/dL and the Urea is 48.1 ± 5.2 mg/dL. This compound also displayed an ALP in the data set on male Wistar rats [1] (serum, male Wistar rats, 5 weeks, mean ± spread) of 120.7 ± 12.3 IU/L. Further, the development of anemia entry in the data set on male Wistar rats [2] (addition of cholecalciferol 500 IU/day to Peg-INF-α and/or RBV, rats, 5 weeks) is “prevented the development of anemia”. For the same compound, in the data set with male Wistar rats [2] (setting [4]), the Hb is 15.1 ± 0.7^d,f g/dL, the MCH was found to be 17.4 ± 0.7 pg, the MCHC is 34 ± 0.8^c,e,g pg/dL and the MCV came to 61.3 ± 1.8 fL. Moreover, in the data set on male Wistar rats [2] (setting [4]), the PCV was 44.9 ± 1.8% and the RBCs is 8.9 ± 0.5^d,f ×10^6/μl.
